{"source": "patent EP0808626A1", "about": "“Use of acetyl-L-carnitine for the treatment of presenile Alzheimer's disease” (Sigma-Tau Industrie Farmaceutiche Riunite S.p.A., priority 1996, dated 1997)", "key": {"[1]": {"tested_on": "early-onset AD patients", "test": "Double-blind, randomized, placebo-controlled trials with cognitive and functional clinical rating scales", "assay_type": "in vivo", "conditions": "\"efficacy\" population", "method": "For the purposes of assessing the clinical efficacy of acetyl L-carnitine in early-onset AD patients. 8 different parallel-group, double-blind, randomized, placebo-controlled trials in which acetyl L-carnitine was administered chronically by mouth to subjects suffering from early-onset (before age 65) or late-onset (after age 65) Alzheimer's disease were pooled and assessed as a whole.\nAcetyl L-carnitine or placebo were administered at doses ranging from 2 to 3 g/day in the different studies. All patients recruited into these trials had diagnoses of probable Alzheimer's disease according to the criteria laid down by the DSM-III-R and the NINCDS-ADRDA; for recruitment patients had to have a Hachinski Ischemic Score of 4 points or less and no CT or NMR findings indicative of cerebral lesions other than those typical of Alzheimer's disease.\nA total of 834 patients were recruited into the 8 trials considered. Of these, 140 (16.8%) were suffering from early-onset AD (before 65 years of age according to the DSM-IV definition). The criterion adopted to identity these patients as early-onset was their actual age at the time of recruitment into the study.\nIn the 8 trials considered, the progression of Alzheimer's disease was assessed on the basis of cognitive clinical rating scales (cognitive section of the Alzheimer's Disease Assessment Scale [ADAS-Cog]; MMSE - Mini Mental State Examination; BIMC - Blessed Information Memory Concentration) and functional or global clinical scales (CDR - Clinical Dementia Rating Scale; BDS - Blessed Dementia Scale; CGI-S and -C - Clinical Global Impression of Severity and Change) according to the scientific criteria indicated and approved by the various international regulatory authorities."}, "[2]": {"conditions": "stated to justify doses larger than 1 to 4 g/day; cited from earlier work"}, "[3]": {"conditions": "study ST-901, Functional, oral 3 g/day, 12 months"}, "[4]": {"conditions": "study ST-88102, Cognitive, oral 2-3 g/day, 44 weeks"}, "[5]": {"conditions": "study ST-88102, Functional, oral 2-3 g/day, 44 weeks"}, "[6]": {"conditions": "the 5 studies of 6 months, Functional, oral"}}}
{"smiles": "CC(=O)O[C@H](CC(=O)[O-])C[N+](C)(C)C", "note": "[Acetyl L-carnitine, acetyl L-carnitine]", "values": [{"measurement": "BIMC, mean change in final value at 6-12 months compared to baseline", "setting": "[1]; study DRN2-006, Cognitive, oral 2 g/day, 12 months", "result": -3.5}, {"measurement": "BDS, mean change in final value at 6-12 months compared to baseline", "setting": "[1]; study DRN2-006, Functional, oral 2 g/day, 12 months", "result": 0.4}, {"measurement": "CDR, mean change in final value at 6-12 months compared to baseline", "setting": "[1]; [3]", "result": 1.9}, {"measurement": "CGI-C, mean change in final value at 6-12 months compared to baseline", "setting": "[1]; [3]", "result": 4.5}, {"measurement": "CGI-S, mean change in final value at 6-12 months compared to baseline", "setting": "[1]; [3]", "result": 0.3}, {"measurement": "ADAS-Cog, mean change in final value at 6-12 months compared to baseline", "setting": "[1]; [4]", "result": 4.7}, {"measurement": "MMSE, mean change in final value at 6-12 months compared to baseline", "setting": "[1]; [4]", "result": -2.1}, {"measurement": "BDS, mean change in final value at 6-12 months compared to baseline", "setting": "[1]; [5]", "result": 1.2}, {"measurement": "CGI-C, mean change in final value at 6-12 months compared to baseline", "setting": "[1]; [5]", "result": 4.4}, {"measurement": "CGI-S, mean change in final value at 6-12 months compared to baseline", "setting": "[1]; [5]", "result": 0.0}, {"measurement": "MMSE, mean change in final value at 6-12 months compared to baseline", "setting": "[1]; the 5 studies of 6 months, Cognitive, oral", "result": -0.7}, {"measurement": "CGI-C, mean change in final value at 6-12 months compared to baseline", "setting": "[1]; [6]", "result": 4.3}, {"measurement": "CGI-S, mean change in final value at 6-12 months compared to baseline", "setting": "[1]; [6]", "result": 0.2}, {"measurement": "toxicity", "setting": "[2]", "result": "substantial non-toxicity"}]}
